Measured values as given in US20220241409A1, “WATER SOLUBLE ADJUVANT AND COMPOSITION CONTAINING SAME” (Sumitomo Dainippon Pharma Co., Ltd., priority 2019, published 2022).

Key:
[1] = test system: Antigen-Specific CTL; assay: Immune response of antigen-specific CTL for peptide and tumor cell, vaccine a (Test 11); format: in vivo, mouse
Method: The immune response of CTL induced with a vaccine comprising the present compound in the presence of tumor cells was evaluated in the following procedure. The vaccine was administered to a HLA-A*02:01 transgenic mouse to prepare splenocyte comprising an antigen peptide-specific CTL, and the immune response was evaluated by incubating the spelenocyte in the presence of tumor cells and antigen peptides.
Specifically, vaccine a prepared like Test 6 was injected to a HLA-A*02:01 transgenic mouse intradermally at the tail base area in an amount for administering 300 μg of Compound of formula 4 per body and 225 μg of Peptide SEQ ID No. 3 per body. Or, in the step of preparing vaccine a, the compound prepared in Example 3 was added to the diluted peptide solution to prepare a vaccine, and the prepared vaccine was injected to a HLA-A*02:01 transgenic mouse intradermally at the tail base area in an amount for administering 300 μg of Compound of formula 4 per body, 225 μg of Peptide SEQ ID No. 3 per body, and 32.5 ng of the compound prepared in Example 3 per body. The administrations were done twice, which had one week interval. One week after the final administration, the mice were sacrificed with CO2 gas, and then spleens removed from the mice. A splenocyte suspension was prepared from the spleens with Complete T-cell Medium (hereinafter, CTM). The splenocytes derived from each three mice per group were mixed. The mixed splenocytes were stained with an FITC-labeled anti-CD8 antibody (BD Pharmingen) and a PE-labeled HLA tetramer (MBL) against Peptide SEQ ID NO. 1, and analyzed for peptide-specific CTLs with a flow cytometer.
The peptide (SEQ ID No. 1) solution was added to a part of the splenocyte at a final concentration of 100 μg/mL, and the cells were stood for about one hour at 37° C., 5% CO2. After excess peptides were washed out with CTM, the peptide-pulsed splenocyte and unpulsed splenocyte were mixed at a ratio of 1:10, and the mixture was seeded on a U-bottom 96 well plate at 3.85×10^5 cells/well. A cell line (hereinafter, also referred to as LLC-HHD-WT1 tumor cells) was established by stably expressing HHD [a chimeric HLA of a human MHC (HLA-A*02:01) and a mouse MHC (H-2D^b)] and antigen peptide (SEQ ID No. 1) in a mouse Lewis lung carcinoma cell line LLC as tumor cells. X-ray (50 Gy) was irradiated to the LLC-HHD-WT1 tumor cells, and then the LLC-HHD-WT1 tumor cells were cultured in the presence of a mouse recombinant IFN-γ (100 ng/mL) for about two days and washed with CTM. […] The concentration of mouse IFN-γ in the culture supernatant was measured with an ELISA kit (R&D Systems). […] 1, and analyzed for peptide-specific CTLs with a flow cytometer.

[2] = test system: HLA-A*24:02 transgenic mouse; assay: In vivo adjuvant activity, CTL induction with vaccine f, IFNγ ELISPOT (Test 19); details: 0.4 nmol per body added to vaccine f versus no compound; twice
Method: The in vivo adjuvant activity of the compound of Example 2 was evaluated in the following procedure. To a vaccine prepared by mixing Peptide SEQ ID No. 5 prepared in Reference example 19 with a preliminarily-emulsified composition (hereinafter, referred to as “vaccine f”) was added the compound prepared in Example 2 to prepare a vaccine. The vaccine was administered to a HLA-A*24:02 transgenic mouse, and the adjuvant activity of the vaccine was evaluated by the method of testing antigen-specific CTL induction. The CYTWNQMNL (SEQ ID No. 2) in Peptide SEQ ID No. 5 corresponds to an antigen peptide derived from an HLA-A*24:02-restricted WT1 protein.
The character for inducing CTLs specific to the antigen peptide (SEQ ID No. 2) by vaccine f was evaluated by measuring whether IFNγ can be produced upon stimulation of splenocytes from the mouse with the peptide. In addition, the character for exerting in vivo adjuvant activity by the compound in Example 2 was evaluated by comparing the number of CTLs induced by vaccine f and the number of CTLs induced by the vaccine prepared by adding the compound prepared in Example 2 to vaccine f, and checking presence or absence of the increase on the number.
Specifically, Peptide of SEQ ID No. 5 was dissolved in DMSO, and then diluted with water for injection to concentrations of 3 mg/mL. […]

Row | SMILES | amount of IFN-γ produced from the CTL in the mixed culture, relative to vaccine a without compound ([1]; about three days culture with LLC-HHD-WT1 tumor cells and Peptide SEQ ID No. 1, ELISA, average of 3 wells) | difference in CTL specific to Peptide SEQ ID No. 1 versus vaccine a without compound ([1]; after about three days culture with LLC-HHD-WT1 tumor cells and Peptide SEQ ID No. 1) | CTLs specific to Peptide (SEQ ID No. 1) in splenocyte, relative to vaccine a without compound ([1]; before culture, flow cytometry (tetramer), 32.5 ng per body in vaccine a, twice) | change of CTL specific to Peptide SEQ ID No. 1 on culture with tumor cells ([1]; splenocytes mixed with tumor cells and cultured in the presence of Peptide SEQ ID No. 1) | CTL counts responsive to Peptide of SEQ ID No. 2 [2]
1 | CCCCOc1nc(N)c2[nH]c(=O)n(Cc3ccc(CN(C)CCOCCOCCOCCOCCO)cc3)c2n1 [Example 3, 6-amino-2-butoxy-9-{[4-(16-hydroxy-2-methyl-5,8,11,14-tetraoxa-2-azahexadecan-1-yl)phenyl]methyl}-7,9-dihydro-8H-purin-8-one] | 4.9 times | 3.6 times | 1.7 times | increased | –
2 | CCCCOc1nc(N)c2[nH]c(=O)n(Cc3ccc(CN(C)CCOCCOCCOCCOCCO)nc3)c2n1 [Example 2, 6-amino-2-butoxy-9-{[6-(16-hydroxy-2-methyl-5,8,11,14-tetraoxa-2-azahexadecan-1-yl)pyridin-3-yl]methyl}-7,9-dihydro-8H-purin-8-one-trifluoroacetate] | – | – | – | – | more
